# Laboratory results published in article PMC11219871, “Epigenetic-based differentiation therapy for Acute Myeloid Leukemia” (Nature Communications, 2024).
# Several values for one entry are separate records, joined by “and”; a condition that tells them apart may be missing. Equal entries are not always repeated. Where two headings read alike, the source gives them in different places.
# Tests used:
# Type in all cases: cell-based, human
# MV4-11 [1] = experiment: Cell proliferation assay: GI50
# Procedure, shortened: (§1)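 Suspension cells at 1 × 10^6 cells/mL were treated in triplicate, then incubated 1–3 h with MTS reagent (CellTiter 96 AQueous One) for colorimetric viable-cell read-out. After medium-only background subtraction, absorbance was expressed as % of untreated cells, and GI50 was fitted by non-linear regression.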
# HL-60 [2] = experiment: Cell proliferation assay: GI50; conditions: read-out: GI50
# Procedure, shortened: as §1
# ML-2 = experiment: Cell proliferation assay: GI50
# Procedure, shortened: as §1
# MOLM-13 [3] = experiment: Cell proliferation assay: GI50
# Procedure, shortened: as §1
# MV4-11 [4] = experiment: Differentiation-apoptosis assay, CD11b / annexin-V / Sytox Green / myeloid markers flow cytometry; parameters: Cell viability (%): concentration or dose not given beside the values; conditions: MV4-11, 48 h treatment, replicates 1-3 (Suppl. Fig. 5A)
# Procedure: (§2) Next, the cells were washed twice with phosphate-buffered saline (PBS) and resuspended in 1X Binding Buffer at a concentration of 1 × 10^6 cells/mL. An 8-µL aliquot of APC-CD11b (BD Pharmingen, Franklin Lakes, NJ, USA) and 1 µL of FITC annexin-V (AV) (BD Pharmingen, Franklin Lakes, NJ, USA) antibodies were added and incubated for 15 min at room temperature in the dark. Finally, after the addition of 400 µL of 1X Binding Buffer to each tube, samples were collected on a BD FACSCanto flow cytometer (Becton Dickinson, San Jose, CA, USA) and analyzed using FlowJo software.
# (§3) For the rest of experiments, the mix of antibodies (2 µL of BV786-CD13, Cat No, 744748 BD; 1 µL of diluted 1:10 antibody of PB-HLADR, Cat No 307633, Biolegend; 5 µL of APCH7-CD14, Cat No 641394, BD) was added to 10 µL of Brilliant Stain Buffer Plus (Becton Dickinson, San Jose, CA, USA). Then, 1 million cells (volume of 250 µL) were added and incubated for 30 min at room temperature in darkness. After 10 min incubation at room temperature with 2 mL of FACSLysing 1X, cells were centrifuged at 540 g for 5 min and washed twice with FACSBuffer. Finally, after centrifugation at 540 g for 5 min cells were resuspended in FACSBuffer.
# MOLM-13 [5] = experiment: as above; parameters: Cell viability (%): concentration or dose not given beside the values; conditions: MOLM-13, 48 h treatment, replicates 1-3 (Suppl. Fig. 5A)
# Procedure: as §2, §3
# HL-60 [6] = experiment: as above; parameters: Cell viability (%): concentration or dose not given beside the values
# Procedure, shortened: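 HL-60 cells were stained for the myeloid differentiation marker CD11b, with annexin-V and Sytox Green marking apoptosis and cell death. Cells were washed in PBS and resuspended at 1 × 10^6 cells/mL in binding buffer; marker staining of 1 million cells was for 30 min at room temperature in the dark, followed by red-cell lysis. Readout was flow cytometry.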
# [7] = HL-60, 48 h treatment, replicates 1-3 (Suppl. Fig. 5A)
compound,measurement,setting,value
"Cc1[nH]c2ccccc2c1CCNCc1ccc(/C=C/C(=O)NO)cc1 [Panobinostat, reference compound]",GI50,"MV4-11 [1]; Homo sapiens, MV4-11, MV4-11",13 nM
same,GI50,"MV4-11 [1]; Homo sapiens, MV4-11, MV4-11, replicates 1-3, nM for Panobistat and Quisinostat",14.5 nM
same,GI50,"MV4-11 [1]; MV4-11, replicates 1-3, nM for Panobistat and Quisinostat",13.3 nM and 11.2 nM
same,GI50,"HL-60 [2]; HL-60, replicates 1-3, nM for Panobistat and Quisinostat",15.6 nM and 19.3 nM
same,GI50,"HL-60 [2]; Homo sapiens, HL-60, HL-60, replicates 1-3, nM for Panobistat and Quisinostat",19.1 nM
same,GI50,"HL-60 [2]; Homo sapiens, HL-60, HL-60",18 nM
same,GI50,"ML-2; Homo sapiens, ML-2, ML-2",51.6 nM
same,GI50,"ML-2; Homo sapiens, ML-2, ML-2, replicates 1-3, nM for Panobistat and Quisinostat",46.8 nM
same,GI50,"ML-2; ML-2, replicates 1-3, nM for Panobistat and Quisinostat",65.3 nM and 42.7 nM
same,GI50,"MOLM-13 [3]; Homo sapiens, MOLM-13, MOLM-13",32 nM
same,GI50,"MOLM-13 [3]; Homo sapiens, MOLM-13, MOLM-13, replicates 1-3, nM for Panobistat and Quisinostat",23.2 nM
same,GI50,"MOLM-13 [3]; MOLM-13, replicates 1-3, nM for Panobistat and Quisinostat",41.5 nM and 31.3 nM
same,CD11b (%),MV4-11 [4],12.9% and 19.4% and 18.7%
same,Cell viability (%),MV4-11 [4],38.3% and 43.2% and 44.2%
same,CD11b (%),MOLM-13 [5],39.6% and 32.7% and 32.0%
same,Cell viability (%),MOLM-13 [5],45.5% and 59.6% and 57.8%
same,CD11b (%),HL-60 [6]; [7],10.8% and 18.5%
same,Cell viability (%),HL-60 [6]; [7],45.2% and 38.6% and 44.9%
same,Annexin V (%) Replicate 1,"HL-60 [6]; HL-60, daily 25% GI50, 48 h",20.30%
same,Annexin V (%) Replicate 2,"HL-60 [6]; HL-60, daily 25% GI50, 48 h",24.90%
same,Annexin V (%) Replicate 3,"HL-60 [6]; HL-60, daily 25% GI50, 48 h",22.00%
same,CD11b (%) Replicate 1,"HL-60 [6]; HL-60, daily 25% GI50, 48 h",12.07%
same,CD11b (%) Replicate 2,"HL-60 [6]; HL-60, daily 25% GI50, 48 h",18.60%
same,CD11b (%) Replicate 3,"HL-60 [6]; HL-60, daily 25% GI50, 48 h",12.38%
